Results published in US11130769B2 (Prelude Therapeutics Incorporated, priority 2018, dated 2021).
Read-outs that look alike come from different tables or passages of the source.

Assays:
MCL-1 = MCL-1 (Homo sapiens (Human), UniProt Q07820); assay: Cell free Mcl-1:Bim affinity assay (fluorescence polarization competition); assay type: binding; details: 15 nM MCL-1, 5 nM FITC-Bim, 1 hour at room temperature, read-out: BIM_Ki
Method in brief: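 Fluorescence polarization competition: 10-point 3-fold compound dilutions displaced 5 nM FITC-Bim from 15 nM MCL-1 over 1 h at room temperature. Ki was derived from the fitted IC50 using the Nikolovska-Coleska equation, with percent inhibition normalized to DMSO and positive controls.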

H929 cells = assay: Cell viability assay (H929 10 FBS); assay type: cell-based; details: Homo sapiens, NCI-H929, 24 hours, read-out: H929_10FBS IC50
Method in brief: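 ATP-based luminescence (CellTiter-Glo or ATPlite 1 Step, 30-60 min at RT) gauged viability of H929 myeloma cells after 24 h compound treatment at 37 °C. Cells plated at 4000 per well in 10% FBS RPMI 1640 supplemented with pyruvate, HEPES and glucose.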

MCL-1, sequence (Q07820 whole entry): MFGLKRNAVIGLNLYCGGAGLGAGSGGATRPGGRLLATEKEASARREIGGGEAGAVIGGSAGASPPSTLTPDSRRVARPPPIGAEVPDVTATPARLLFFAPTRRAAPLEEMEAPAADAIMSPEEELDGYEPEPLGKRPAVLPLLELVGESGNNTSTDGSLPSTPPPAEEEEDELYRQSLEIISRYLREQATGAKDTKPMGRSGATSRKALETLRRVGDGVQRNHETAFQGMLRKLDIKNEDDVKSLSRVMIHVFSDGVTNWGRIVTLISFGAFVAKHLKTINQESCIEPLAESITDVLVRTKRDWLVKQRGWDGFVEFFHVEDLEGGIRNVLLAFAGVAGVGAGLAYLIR

SMILES	Ki (MCL-1; class symbols) [nM]	IC50 (H929 cells) [nM]	Ki (MCL-1; numeric values) [nM]
C[C@H]1NC/C=C/[C@H](OC(=O)N(C)C)[C@@H]2CC[C@H]2CN2C[C@@]3(CCCc4cc(Cl)ccc43)COc3ccc(cc32)S(=O)(=O)NC1=O [Example 146, [(3R,6R,7S,8E,12R,22S)-6′-Chloro-12-methyl-13,15,15-trioxo-spiro[20-oxa-15-thia-1,11,14-triazatetracyclo[14.7.2.03,6.019,24]pentacosa-8,16,18,24-tetraene-22,1′-tetralin]-7-yl] N,N-dimethylcarbamate]	1 to 100	< 500	–
CN1C/C=C/[C@H](OC(=O)N2CCN3CCOCC3C2)[C@@H]2CC[C@H]2CN2C[C@@]3(CCCc4cc(Cl)ccc43)COc3ccc(cc32)S(=O)(=O)NC(=O)C1(C)C (stereo in doubt) [Example 208, [(3R,6R,7S,8E,22S)-6′-Chloro-11,12,12-trimethyl-13,15,15-trioxo-spiro[20-oxa-15-thia-1,11,14-triazatetracyclo[14.7.2.03,6.019,24]pentacosa-8,16,18,24-tetraene-22,1′-tetralin]-7-yl] (9aS)-3,4,6,7,9,9a-hexahydro-1H-pyrazino[2,1-c][1,4]oxazine-8-carboxylate]	1 to 100	< 500	–
COC[C@H]1C(=O)NS(=O)(=O)c2ccc3c(c2)N(C[C@@H]2CC[C@H]2[C@H](OC)/C=C/C[C@@H]1C)C[C@@]1(CCCc2cc(Cl)ccc21)CO3 [Example 87, (3R,6R,7R,8E,11S,12S,22S)-6′-Chloro-7-methoxy-12-(methoxymethyl)-11-methyl-15,15-dioxo-spiro[20-oxa-15-thia-1,14-diazatetracyclo[14.7.2.03,6.019,24]pentacosa-8,16,18,24-tetraene-22,1′-tetralin]-13-one]	< 1	< 1000	–
CCN1C/C=C/[C@@H](OC)[C@@H]2CC[C@H]2CN2C[C@@]3(CCCc4cc(Cl)ccc43)COc3ccc(cc32)S(=O)(=O)NC(=O)[C@H]1C [Example 132, (3R,6R,7R,8E,12R,22S)-6′-Chloro-7-methoxy-11-ethyl-12-methyl-15,15-dioxo-spiro[20-oxa-15-thia-1,11,14-triazatetracyclo[14.7.2.03,6.019,24]pentacosa-8,16(25),17,19(24)-tetraene-22,1′-tetralin]-13-one]	1 to 100	< 500	–
CO[C@@H]1/C=C/CN(C)[C@H](C)C(=O)NS(=O)(=O)c2ccc3c(c2)N(C[C@@H]2CC[C@H]21)C[C@@]1(CCCc2cc(Cl)ccc21)CO3 [Example 123, (3R,6R,7R,8E,12R,22S)-6′-Chloro-7-methoxy-11,12-dimethyl-15,15-dioxo-spiro[20-oxa-15-thia-1,11,14-triazatetracyclo[14.7.2.03,6.019,24]pentacosa-8,16(25),17,19(24)-tetraene-22,1′-tetralin]-13-one]	1 to 100	< 1000	–
CC(C)CNC(=O)O[C@H]1/C=C/COC(C)(C)C(=O)NS(=O)(=O)c2ccc3c(c2)N(C[C@@H]2CC[C@H]21)C[C@@]1(CCCc2cc(Cl)ccc21)CO3 [Example 182, [(3R,6R,7S,8E,22S)-6′-Chloro-12,12-dimethyl-13,15,15-trioxo-spiro[11,20-dioxa-15-thia-1,14-diazatetracyclo[14.7.2.03,6.019,24]pentacosa-8,16,18,24-tetraene-22,1′-tetralin]-7-yl] N-isobutylcarbamate]	< 1	< 500	–
CO[C@H]1/C=C/C[C@H](C)CC(=O)NS(=O)(=O)c2ccc3c(c2)N(C[C@@H]2CC[C@H]21)C[C@@]1(CCCc2cc(Cl)ccc21)CO3 [Example 82, (3R,6R,7S,8E,11S,22S)-6′-Chloro-7-methoxy-11-methyl-15,15-dioxo-spiro[20-oxa-15-thia-1,14-diazatetracyclo[14.7.2.03,6.019,24]pentacosa-8,16(25),17,19(24)-tetraene-22,1′-tetralin]-13-one]	1 to 100	> 1000	–
CC1(C)OC/C=C/[C@H](OC(=O)N2CCN3CCOC[C@H]3C2)[C@@H]2CC[C@H]2CN2C[C@@]3(CCCc4cc(Cl)ccc43)COc3ccc(cc32)S(=O)(=O)NC1=O [Example 171, [(3R,6R,7S,8E,22S)-6′-Chloro-12,12-dimethyl-13,15,15-trioxo-spiro[11,20-dioxa-15,6-thia-1,14-diazatetracyclo[14.7.2.03,6.019,24]pentacosa-8,16,18,24-tetraene-22,1′-tetralin]-7-yl](9aS)-3,4,6,7,9,9a-hexahydro-1H-pyrazino[2,1-c][1,4]oxazine-8-carboxylate]	< 1	< 500	–
CO[C@@H]1/C=C/CN[C@H](C)C(=O)NS(=O)(=O)c2ccc3c(c2)N(C[C@@H]2CC[C@H]21)C[C@@]1(CCCc2cc(Cl)ccc21)CO3 [Example 121, (3R,6R,7R,8E,12R,22S)-6′-Chloro-7-methoxy-12-methyl-15,15-dioxo-spiro[20-oxa-15-thia-1,11,14-triazatetracyclo[14.7.2.03,6.019,24]pentacosa-8,16(25),17,19(24)-tetraene-22,1′-tetralin]-13-one]	1 to 100	> 1000	–
CN(C(=O)O[C@H]1/C=C/COC(C)(C)C(=O)NS(=O)(=O)c2ccc3c(c2)N(C[C@@H]2CC[C@H]21)C[C@]1(CO3)OCCc2cc(Cl)ccc21)[C@@H]1CCOC1 [Example 299, [(3R,6R,7S,8E,22R)-6′-Chloro-12,12-dimethyl-13,15,15-trioxo-spiro[11,20-dioxa-15-thia-1,14-diazatetracyclo[14.7.2.03,6.019,24]pentacosa-8,16,18,24-tetraene-22,1′-isochromane]-7-yl] N-methyl-N-[(3R)-tetrahydrofuran-3-yl]carbamate]	< 1	< 1000	–
CC1(C)OC/C=C/[C@H](OCC(=O)NC2CCOCC2)[C@@H]2CC[C@H]2CN2C[C@@]3(CCCc4cc(Cl)ccc43)COc3ccc(cc32)S(=O)(=O)NC1=O [Example 282, 2-[(3R,6R,7S,8E,22S)-6′-Chloro-12,12-dimethyl-13,15,15-trioxo-spiro[11,20-dioxa-15λ6-thia-1,14-diazatetracyclo[14.7.2.03,6.019,24]pentacosa-8,16,18,24-tetraene-22,1′-tetralin]-7-yl]oxy-N-tetrahydropyran-4-yl-acetamide]	< 1	< 500	–
COC[C@H]1C(=O)NS(=O)(=O)c2ccc3c(c2)N(C[C@@H]2CC[C@H]2[C@H](O)/C=C/C[C@@H]1C)C[C@@]1(CCCc2cc(Cl)ccc21)CO3 [Example 88, (3R,6R,7R,8E,11S,12S,22S)-6′-Chloro-7-hydroxy-12-(methoxymethyl)-11-methyl-15,15-dioxo-spiro[20-oxa-15-thia-1,14-diazatetracyclo[14.7.2.03,6.019,24]pentacosa-8,16,18,24-tetraene-22,1′-tetralin]-13-one]	< 1	< 1000	–
C[C@@H]1CN(C(=O)O[C@H]2/C=C/COC(C)(C)C(=O)NS(=O)(=O)c3ccc4c(c3)N(C[C@@H]3CC[C@H]32)C[C@@]2(CCCc3cc(Cl)ccc32)CO4)CCN1 [Example 175, [(3R,6R,7S,8E,22S)-6′-Chloro-12,12-dimethyl-13,15,15-trioxo-spiro[11,20-dioxa-15-thia-1,14-diazatetracyclo[14.7.2.03,6.019,24]pentacosa-8,16,18,24-tetraene-22,1′-tetralin]-7-yl] (3R)-3-methylpiperazine-1-carboxylate]	< 1	< 500	–
COC[C@@H]1OC/C=C/[C@@H](OC)[C@@H]2CC[C@H]2CN2C[C@@]3(CCCc4cc(Cl)ccc43)COc3ccc(cc32)S(=O)(=O)NC1=O [Example 125, (3R,6R,7R,8E,12S,22S)-6′-Chloro-7-methoxy-12-(methoxymethyl)-15,15-dioxo-spiro[11,20-dioxa-15-thia-1,14-diazatetracyclo[14.7.2.03,6.019,24]pentacosa-8,16(25),17,19(24)-tetraene-22,1′-tetralin]-13-one]	< 1	> 1000	–
CO[C@@H]1/C=C/CO[C@H](C)C(=O)NS(=O)(=O)c2ccc3c(c2)N(C[C@@H]2CC[C@H]21)C[C@@]1(CCCc2cc(Cl)ccc21)CO3 [Example 115, (3R,6R,7R,8E,12R,22S)-6′-Chloro-7-methoxy-12-methyl-15,15-dioxo-spiro[11,20-dioxa-15-thia-1,14-diazatetracyclo[14.7.2.03,6.019,24]pentacosa-8,16,18,24-tetraene-22,1′-tetralin]-13-one]	1 to 100	> 1000	–
CC(=O)NS(=O)(=O)c1ccc2c(c1)N(CC1CCC1)CC1(CCCc3cc(Cl)ccc31)CO2 (stereo not drawn) [Example 1, N-[6′-Chloro-5-(cyclobutylmethyl)spiro[2,4-dihydro-1,5-benzoxazepine-3,1′-tetralin]-7-yl]sulfonylacetamide]	–	> 1000	45.6
O=C(Cc1ccncc1)NS(=O)(=O)c1ccc2c(c1)N(CC1CCC1)C[C@@]1(CCCc3cc(Cl)ccc31)CO2 [Example 19, 2-Pyridin-4-yl-N-[(3S)-6′-chloro-5-(cyclobutylmethyl)spiro[2,4-dihydro-1,5-benzoxazepine-3,1′-tetralin]-7-yl]sulfonyl-acetamide]	–	> 1000	9.3
COC1CCN(C(=O)O[C@H]2/C=C/CN(C)C3(CCC3)C(=O)NS(=O)(=O)c3ccc4c(c3)N(C[C@@H]3CC[C@H]32)C[C@@]2(CCCc3cc(Cl)ccc32)CO4)CC1 [Example 245, [(3R,6R,7S,8E,22S)-6′-Chloro-11-methyl-12,12-(1,3-propylene)-13,15,15-trioxo-spiro[20-oxa-15-thia-1,11,14-triazatetracyclo[14.7.2.03,6.019,24]pentacosa-8,16,18,24-tetraene-22,1′-tetralin]-7-yl] 4-methoxypiperidine-1-carboxylate]	< 1	< 500	–
